Data as given in ChEMBL document CHEMBL3880431, “Heme oxygenase inhibitors, screening methods for heme oxygenase inhibitors and methods of use of heme oxygenase inhibitors for antimicrobial therapy” (2013).

How the values were obtained:
[1] = Lipophilicity, log P of the compound; assay type: physicochemical; details: octanol/water
[2] = Solubility of the compound in methanol; assay type: physicochemical

Row | Structure (SMILES) | logP ([1]; read-out: logP) | solubility [2] | logP [1]
1 | O=C(O)CSc1cccc2ccccc12 | 3.22 |  | 
2 | O=C(Cn1ncc2cc([N+](=O)[O-])ccc21)NCc1ccco1 | 0.92 |  | 
3 | Cc1cc(-c2ccc(F)cc2)nc2cc(C(=O)O)nn12 | 2.08 |  | 
4 | CC(C)c1ccc(CN2CCN(CCO)CC2)cc1 | 1.93 | Insoluble | 
5 | O=C(Oc1ccc(OC(=O)c2ccco2)cc1)c1ccco1 | 2.53 | Insoluble | 
6 | Cn1c(=O)c(CC(=O)C(=O)O)nc2ccccc21 | -0.29 |  | 
7 | CN1CCN(CCCn2cnc3c2c(=O)n(C)c(=O)n3C)CC1 | -0.76 | Soluble | 
8 | O=C(Cc1ccc(F)cc1)NNC(=O)Cn1cnnn1 | -0.66 |  | 
9 | COc1ccc(CNC(=N)NC(=N)N)cc1 | 1.46 |  | 
10 | O=C(NNC(=O)c1ccncc1)c1ccncc1 |  | Soluble | 0.05
11 | O=C(Cc1ccc(Cl)cc1)N/N=C/c1c[nH]c2ccccc12 | 4.74 | Soluble | 
12 | COc1ccc(C(=O)n2nnc3ccccc32)cc1 | 2.77 |  | 
13 | COc1ccc(NC(=O)CSc2nnc(C)n2-c2ccc(C)cc2)cc1 | 3.95 |  | 
14 | COc1ccc2[nH]c(SCC(N)=O)nc2c1 | 1.01 |  | 
15 | O=C(O)c1cc(-c2cccnc2)nc2ccccc12 | 2.51 | Insoluble | 
16 | C1CN2CCC1/C(=N\Nc1nnn[nH]1)C2 | 1.56 |  | 
17 | Cc1ccc(NC(=O)c2cnccn2)cc1Cl | 1.48 | Insoluble | 
18 | COc1ccc(/C=N/NC(=O)Cc2ccc([N+](=O)[O-])cc2)cc1 | 3.67 |  | 
19 | Cc1nc(NCCCC(=O)O)c2ccccc2n1 | 1.38 |  | 
20 | Cc1nccn1S(=O)(=O)c1ccc(F)cc1 | 0.89 |  | 
21 | O=C(O)CNS(=O)(=O)c1ccc(F)cc1 | 0.66 |  | 
22 | Cc1cn[nH]c1NC=C1C(=O)c2ccccc2C1=O | 1.79 |  | 
23 | c1ccc2[nH]c(Cc3ccncc3)nc2c1 | 2.14 |  | 
24 | O=C(Cc1ccc([N+](=O)[O-])cc1)N/N=C/c1ccc(O)cc1 | 3.41 | Insoluble | 
25 | CNCc1ccccc1Sc1cccc(OC)c1 | 3.92 |  | 
26 | O=C(NCCOc1ccccc1)C(=O)Nc1ccccc1 | 1.77 | Insoluble | 
27 | COc1ccc(C(N)Cc2cnc[nH]2)cc1 (centres undefined) | 0.81 |  | 

Row | Structure (SMILES) | logP ([1]; read-out: logP) | solubility [2] | logP [1]
28 | O=C1CN=C(Nc2nc3ccccc3o2)N1 | 0.62 |  | 
29 | O=C(O)c1cnc2c(ccc3ccccc32)c1O | 1.87 |  | 
30 | Nc1nnc(CCN2C(=O)c3ccccc3C2=O)s1 | 1.39 |  | 
31 | CCOc1ccc(Nc2nc(CC(=O)O)cs2)cc1 | 2.29 |  | 
32 | N#CCCNCc1cccnc1 | 0.03 |  | 
33 | O=c1nc2oc3cc(O)ccc3cc-2c(=O)[nH]1 | 1.25 |  | 
34 | Nc1nonc1-n1cc(-c2ccccc2)nn1 | 1.15 |  | 
35 | Cc1cc(C)nc(NC(=N)Nc2ccc(C(=O)O)cc2)n1 | 1.62 | Soluble | 
36 | Cc1ccccc1C(=O)O/N=C(\N)c1cccnc1 | 2.61 |  | 
37 | O=CNc1nonc1NNc1ccccc1 | 0.89 | Soluble | 
38 | O=C(O)Cc1c(C(=O)O)[nH]c2ccccc12 | 1.67 |  | 
39 | O=C(O)CSc1nc(O)c2ccccc2n1 | 1.34 |  | 
40 | COC(=O)c1ccc(/C=N/n2cnnc2)cc1 | 1.55 |  | 
41 | C=CCn1c(S)nc2sc3c(c2c1=O)CCN(C)C3 | 2.29 |  | 
42 | C/N=C(/NC)SC1CC(=O)N(c2cccc(C(=O)O)c2)C1=O (centres undefined) | 1.25 |  | 
43 | C=CCNc1nc(-c2cccs2)c(CC(=O)O)s1 | 2.29 |  | 
44 | Cc1ccc(CN2CCN(Cc3ccccc3)CC2)cc1 | 3.57 | Insoluble | 
45 | Nc1cc2nc3ccccc3nc2cc1N | 1.66 |  | 
46 | NCc1ccccn1 | -0.11 |  | 
47 | COc1ccc(C(=O)COC(=O)/C=C/c2ccccc2)cc1 | 3.7 | Insoluble | 
48 | O=C(c1ccccc1O)c1[nH]ncc1[N+](=O)[O-] | 1.6 |  | 
49 | O=C1c2ccccc2-c2nc3n[nH]nc3nc21 | 2 |  | 
50 | Nc1nonc1N/N=C/c1ccc(O)c(O)c1 | 3.18 |  | 
51 | NC(=O)CNC(=O)Cc1ccccc1 | 0.06 |  | 
52 | Nc1nnnn1/N=C/c1cc2c(cc1[N+](=O)[O-])OCO2 | 0.52 | Insoluble | 
53 | O=C1OC(c2ccccc2)=N/C1=C\Nc1cccc([N+](=O)[O-])c1 | 3.05 | Insoluble | 
54 | O=C(CNC(=O)c1cccnc1)N/N=C/c1ccccn1 | 0.32 | Soluble | 

Row | Structure (SMILES) | logP ([1]; read-out: logP) | solubility [2] | logP [1]
55 | NCC(O)(c1ccc(Cl)cc1)c1ccc(Cl)cc1 | 3.63 | Soluble | 
56 | O=C(c1ccco1)C12CN3CN(CN(C3)C1)C2 | -0.96 | Soluble | 
57 | NCc1ccc2c3c(cccc13)C(=O)N2 | 1.36 |  | 
58 | CCc1cc(=O)oc2cc(OCC(N)=O)ccc12 | 1.46 | Insoluble | 
59 | O=C(CSc1nc2cccnc2[nH]1)NCCc1ccccc1 | 2.43 |  | 
60 | N#Cc1ncc(-c2ccccc2)nc1C#N | 0.8 |  | 
61 | NC(=O)C1=NC(c2cccnc2)=NC1=O | -1.12 |  | 
62 | N=C(N/N=C\c1cccnc1)N/N=C\c1cccnc1 | 7.05 | Soluble | 
63 | Cc1cccc(NC(=O)c2ccc(C(=O)Nc3cccc(C)n3)cc2)n1 | 2.68 | Insoluble | 
64 | O=C(O)c1ccc2c(c1)C(=O)N(CCO)C2=O | 0.09 | Soluble | 
65 | NC1=N[NH+]([O-])c2ccccc2[NH+]1[O-] (centres undefined) | 1.22 |  | 
66 | Nc1nnc(-c2cc3ccc(O)cc3oc2=O)s1 | 2.05 |  | 
67 | Nc1nonc1-c1nc2ccccc2n1CC(=O)O | 1.08 |  | 
68 | O=C(CC1NCCNC1=O)NCc1ccccc1 (centres undefined) | -0.2 |  | 
69 | Cc1nonc1NC(=O)CN1CCN(C)CC1 | -1.04 |  | 
70 | NCC(=O)N(O)Cc1ccccc1 | 0.19 |  | 
71 | Cc1ccc(O)c(/C=N/c2cccc(C(=O)O)c2)c1 | 3.28 |  | 
72 | O=C(O)CCC(=O)Nc1ccc(Oc2ccccc2)cc1 | 2.36 |  | 
73 | Nn1c(=O)[nH]c2c([nH]c3ccccc32)c1=O | 0.26 |  | 
74 | O=C1Nc2ccccc2Nc2ccccc21 | 2.27 |  | 
75 | O=C(O)Cc1c(O)c2c(c(O)c1Cl)C(=O)c1ccccc1C2=O | 2.69 |  | 
76 | O=C(NCc1ccco1)c1cc(C(=O)NCc2ccco2)cc([N+](=O)[O-])c1 | 1.56 | Soluble | 
77 | O=C(O)/C=C\C(=O)Nc1ccc(OCC(=O)O)cc1 | 0.6 | Soluble | 
78 | c1ccc2c(c1)n[n+]1c3ccccc3[n-]n21 | 2 |  | 
79 | C=CCNC(=O)C(=O)Nc1ccc(C(C)C)cc1 | 2 | Insoluble | 
80 | Cc1cccc2c(CCN)c[nH]c12 | 1.9 |  | 
81 | O=C(O)c1ccccc1-c1nc(O)c2ccccc2n1 | 2.25 |  | 

Row | Structure (SMILES) | logP ([1]; read-out: logP) | solubility [2] | logP [1]
82 | [O-][NH+]1C=CC=C/C1=C1\C=CC=C[NH+]1[O-] (centres undefined) | 1.95 |  | 
83 | NCCNc1nc(-c2ccccc2)nnc1-c1ccc(Cl)cc1 | 3.6 |  | 
84 | c1cncc(CNCc2cccnc2)c1 | 1.01 |  | 
85 | O=C(N/N=C/c1ccc(O)cc1O)c1cccnc1 | 1.88 | Insoluble | 
86 | Oc1ccccc1/C=N/Nc1nnn[nH]1 | 3.23 | Insoluble | 
87 | NC(N)N/N=C/c1cc(=O)[nH]c(=O)[nH]1 | -1.79 |  | 
88 | O=C(O)C(O)c1cccc([N+](=O)[O-])c1 (centres undefined) | 0.98 |  | 
89 | O=C(CNC(=O)c1ccc2[nH]c3ccccc3c2c1)NCCO | 1.4 |  | 
90 | NC(=O)NNC1CC(=O)N(c2ccc(F)cc2)C1=O (centres undefined) | -0.43 |  | 
91 | O=C(O)/C=C\C(=O)Nc1ccc(Nc2ccccc2)cc1 | 2.6 | Soluble | 
92 | NCCCNc1ccc([N+](=O)[O-])c(N)c1 | 0.38 |  | 
93 | NC(=O)c1ccc[n+](-c2ccccc2)c1 | 2.15 |  | 
94 | O=C(O)c1ccc(Cc2ccccc2)o1 | 2.22 |  | 
95 | CCN1CCN(CCN)CC1 | -0.88 | Soluble | 
96 | N=C1S/C(=C\c2ccccc2)C(=O)N1c1nonc1N | 2.4 |  | 
97 | NS(=O)(=O)c1ccc2c(N=O)c(O)ccc2c1 | 1.3 |  | 
98 | NC(=O)c1nnn2c1nc(N)c1cc(Cl)ccc12 | -0.14 |  | 
99 | N#Cc1ccc[n+](Cc2cc(=O)[nH]c(=O)[nH]2)c1 | 0.38 |  | 
100 | NCCNS(=O)(=O)c1cccc(C(=O)O)c1 | -0.2 |  | 
101 | Cc1ccc(Nc2n[nH]c(N=CNO)n2)cc1C | 2.07 |  | 
102 | CC(N)c1ccc2ccccc2c1 (centres undefined) | 2.88 |  | 
103 | Nc1ccccc1N/C=C1/C(=O)CNC1=O | -0.57 |  | 
104 | Cc1cc(C(=O)O)nn1-c1ccccc1 | 1.47 |  | 
105 | O=C(Oc1ccc(S(=O)(=O)c2ccc(OC(=O)c3ccco3)cc2)cc1)c1ccco1 | 3.38 |  | 
